One compound from patent US12496294B2, “Methods for improving exercise performance and endurance thereof” (NANJING NUTRABUILDING BIO-TECH CO., LTD., priority 2020, dated 2025) can be followed below.

Assay [1] deals with mice. In words: Treadmill running exercise endurance test in mice after DHB supplementation. The settings on record: DHB 13, 19.5 or 26 mg/kg daily for two consecutive months, vs control group. The format is in vivo. The method, then: (§1) Prior to the experiment, all mice were acclimatized on a treadmill by running at 15% incline and at 10 m/min for two days. After the 2-day acclimatization, 40 mice were randomly divided into four groups as followings (10 for each group): Control group (normal diet supplemented with distilled water), Dihydroberberine (high) group (normal diet supplemented with dihydroberberine 26 mg/kg daily), Dihydroberberine (medium) group: (normal diet supplemented with dihydroberberine 19.5 mg/kg daily), Dihydroberberine (low) group (normal diet supplemented with dihydroberberine 13 mg/kg daily). Each group was fed on a normal diet, other than that, three experimental groups were supplemented with dihydroberberine daily for two consecutive months, while the control group was only supplemented with distilled water at the same time. Exercise endurance of the mice was evaluated by treadmill running. At the beginning of the formal experiment, mice were placed on treadmill, running at 10 m/min for 20 minutes, and then the running speed was increased by 2 m/min every 2nd minutes. End point occurs if the mouse touched the shock grid of the treadmill three times or on the treadmill for 5 consecutive seconds without attempting to reengage the treadmill. At the end point, the running distance, highest running speed, total running time of the mice were recorded^[7].
FIGS. 1-3 show the exercise performance and endurance of mice after supplemented with DHB for two consecutive months.

The subject of assay [2] is mice. In words: SOD, CAT and MDA levels in plasma after treadmill exhaustion test (commercial kits). The settings on record: for SOD level in plasma: FIG. 4; for CAT level in plasma: FIG. 5; for MDA level in plasma: FIG. 6. The format is in vivo. The method, then: as §1
(§2) After the treadmill exhaustion test, blood samples were collected from the mice into heparin tubes. By centrifugation at 4500 rpm for 15 minutes, plasma was separated from the top layer of the whole blood and red blood cells were also separated from the lower layer of the blood. The levels of superoxide dismutase (SOD), catalase (CAT), and malondialdehyde (MDA) in the plasma were determined using commercially available kits.

The subject of a further assay is red blood cells. Description: ROS, 2,3-DPG and T-AOC in red blood cells after treadmill exhaustion test (commercial kits). The format is in vivo, mice. The note with it: for T-AOC level in the red blood cell: FIG. 9. The method, then:
as §1, §2
The reactive oxygen species (ROS), 2,3-diphosphoglycerate (2,3-DPG), and total antioxidant capacity (T-AOC) in red blood cells were also determined using commercially available kits.

The next assay has as its system AMPK. Description: AMPK level in red blood cells after treadmill exhaustion test. The format is in vivo, mice. The settings on record: group supplemented with high dose of DHB (26 mg/kg daily); FIG. 10. The method, then: as §1, with “At the beginning of the formal experiment, mice were placed on treadmill, running at 10 m/min for 20 minutes, and then the running speed was increased by 2 m/min every 2nd minutes. End point occurs if the mouse touched the shock grid of the treadmill three times or on the treadmill for 5 consecutive seconds without attempting to reengage the treadmill.” left out
After the treadmill exhaustion test, blood samples were collected from the mice into heparin tubes. […] The levels of superoxide dismutase (SOD), catalase (CAT), and malondialdehyde (MDA) in the plasma were determined using commercially available kits. […]

The mark [3] stands for this setting: groups with administration of DHB (13, 19.5, 26 mg/kg daily, two months).
The mark [4] stands for this setting: high-dose group (26 mg/kg daily), p<0.001.

On to `COc1ccc2c(c1OC)CN1CCc3cc4c(cc3C1=C2)OCO4` [DHB, dihydroberberine], for which the running distance entry in the assay on mice [1] (FIG. 1) was “enhanced endurance and better performance”. Further, in the assay on mice [1] (FIG. 2), the highest running speed entry was “enhanced endurance and better performance”. Moreover, the running time result in the assay with mice [1] (FIG. 3) was “enhanced endurance and better performance”. In addition, the “SOD level in plasma” value in the assay on mice [2] (groups supplemented with DHB (13, 19.5, 26 mg/kg daily, two months) vs control) was “higher than the control group”; with mice [2] (high-dose DHB group (26 mg/kg daily), p<0.01), “increased significantly”. The “CAT level in plasma” value was “increased” with mice [2] (setting [3]); “increased significantly” in the assay with mice [2] (high dose group (26 mg/kg daily), p<0.05); “increased significantly” in the assay with mice [2] (middle dose group (19.5 mg/kg daily), p<0.05). Moreover, the “MDA level in plasma” value is “increased” in the assay with mice [2] (setting [3]) and “increased significantly” with mice [2] (setting [4]). Further, in the assay with red blood cells (groups supplemented with DHB (13, 19.5, 26 mg/kg daily, two months), FIG. 7), the “ROS level in the red blood cell” value is “increased”. Also, in the assay with red blood cells (groups supplemented with DHB (13, 19.5, 26 mg/kg daily, two months), FIG. 8), the “2,3-DPG level in the red blood cell” value is “increased”. Besides, the “T-AOC level in the red blood cell” value with red blood cells (groups supplemented with DHB (13, 19.5, 26 mg/kg daily, two months)) was “increased”; in the assay with red blood cells (setting [4]), “increased significantly”. The “AMPK level in red blood cells” value with AMPK is “decreased slightly”.
